Consider 8 molecules from article PMC12714728, “VHH antibody loop guides design of a synthetic macrocyclic peptide that potently blocks influenza virus membrane fusion” (npj Viruses, 2025).

Assay [1] deals with H5/Viet HA (A/Vietnam/1203/2004 (H5N1)). The assay is classed as binding, influenza A virus.
Assay [2] has as its system H1/NCa HA (A/New Caledonia/20/1999 (H1N1)). The class given is binding, influenza A virus.
Assay [3] concerns H1/Cal HA (A/California/07/2009 (H1N1)). The class given is binding, influenza A virus.
Assay [4] has as its system H1N1 A/Brisbane/59/2007 (H1/Bri) HA. The class given is biochemical, influenza A virus. The settings on record: pH 5.25.

Non-standard residues stand in square brackets, D forms with d. Residues, ends and D or L forms follow the SMILES beside them. ξ: configuration not given here. ξhhPhe = NC(CCCc1ccccc1)C(=O)O; dAbu = CC[C@@H](N)C(=O)O

As a reminder, the IC50 is the midpoint of a concentration-inhibition curve. Higher therefore signals lower potency. Consider `CSCC[C@@H]1NC(=O)CNC(=O)CNC(=O)[C@H](C)NC(=O)[C@H](C(C)C)NC(=O)CNC(=O)[C@H](CC(C)C)NC(=O)[C@@H]2CCCN2C(=O)[C@H](CC(=O)O)NC(=O)[C@H](CCC(=O)O)NC(=O)[C@H](Cc2ccc(O)cc2)NC(=O)[C@@H](NC(=O)CCC(=O)O)CSSC[C@@H](C(N)=O)NC1=O` [CP12], for which the IC50 worked out at 28.8 ± 10.2 µM in assay [1], 4.95 ± 0.38 µM in assay [2] and 6.38 ± 0.17 µM in assay [3].

Take `CSCC[C@@H]1NC(=O)CNC(=O)CNC(=O)[C@H](C)NC(=O)[C@H](C(C)C)NC(=O)CNC(=O)[C@H](CC(C)C)NC(=O)[C@@H]2CCCN2C(=O)[C@H](CC(=O)O)NC(=O)[C@H](CCC(=O)O)NC(=O)[C@H](Cc2ccc(O)cc2)NC(=O)[C@H](CC(C)C)NC(=O)[C@H](CO)NC(=O)CNC(=O)[C@H]2CCCN2C(=O)[C@H](C(C)C)NC(=O)CNC1=O` [CP5]: the IC50 is 17 ± 4.58 µM in assay [4] and 4.63 µM in assay [3].

For `CC[C@H]1NC(=O)[C@H](C(C)C)NC(=O)CNC(=O)C(CCCc2ccccc2)NC(=O)[C@@H]2CCCN2C(=O)[C@H](CC(=O)O)NC(=O)[C@H](CCC(=O)O)NC(=O)[C@H](Cc2ccc(O)cc2)NC(=O)[C@H](CC(C)C)NC(=O)[C@H]2CCCN2C(=O)CNC(=O)CNC(=O)[C@H](CCSC)NC(=O)CNC(=O)CNC1=O` (some centres unmarked) [CP7] (cyclo([dP]LYEDP[ξhhPhe]GV[dAbu]GGMGG)), the IC50 in assay [4] came out at 3.54 ± 0.31 µM; in assay [1], 14.8 ± 0.57 µM; in assay [2], 0.22 ± 0.01 µM; in assay [3] it was 0.36 ± 0.01 µM.

On to `CSCC[C@@H]1NC(=O)CNC(=O)CNC(=O)[C@H](C)NC(=O)[C@H](C(C)C)NC(=O)CNC(=O)[C@H](CC(C)C)NC(=O)[C@@H]2CCCN2C(=O)[C@H](CC(=O)O)NC(=O)[C@H](CCC(=O)O)NC(=O)[C@H](Cc2ccc(O)cc2)NC(=O)[C@H](CC(C)C)NC(=O)[C@@H](NC(=O)CCC(=O)O)CSSC[C@@H](C(N)=O)NC(=O)CNC1=O` [CP9], for which the IC50 in assay [4] is 0.23 ± 0.02 µM; in assay [1], 5.59 ± 0.21 µM; in assay [2], 0.7 ± 0.02 µM; in assay [3], 0.3 ± 0.03 µM.

Take `CSCC[C@@H]1NC(=O)[C@H](CCC(=O)O)NC(=O)CNC(=O)[C@H](C)NC(=O)[C@H](C(C)C)NC(=O)CNC(=O)[C@H](CC(C)C)NC(=O)[C@@H]2CCCN2C(=O)[C@H](CC(=O)O)NC(=O)[C@H](CCCNC(=N)N)NC(=O)[C@H](Cc2ccc(O)cc2)NC(=O)[C@@H](NC(=O)CCC(=O)O)CSSC[C@@H](C(N)=O)NC1=O` [CP13]: the IC50 was determined as 39.4 ± 8.32 µM in assay [4], 39.8 ± 12.2 µM in assay [1], 12.79 ± 0.09 µM in assay [2] and 11.8 ± 2.61 µM in assay [3].

Take `CSCC[C@@H]1NC(=O)CNC(=O)CNC(=O)[C@H](C)NC(=O)[C@H](C(C)C)NC(=O)CNC(=O)[C@H](CC(C)C)NC(=O)[C@@H]2CCCN2C(=O)[C@H](CC(=O)O)NC(=O)[C@H](CCC(=O)O)NC(=O)[C@H](Cc2ccc(O)cc2)NC(=O)[C@H](CC(C)C)NC(=O)[C@H](CO)NC(=O)[C@@H]2CCCN2C(=O)[C@H]2CCCN2C(=O)[C@H](C(C)C)NC(=O)CNC1=O` [CP2]: the IC50 in assay [4] amounted to 21.9 ± 3.24 µM; in assay [1], 55.1 µM; in assay [2], 12.7 ± 1.64 µM; in assay [3], 5.13 µM.

Consider `CSCC[C@@H]1NC(=O)CNC(=O)CNC(=O)[C@H](C)NC(=O)[C@H](C(C)C)NC(=O)CNC(=O)[C@H](CC(C)C)NC(=O)[C@@H]2CCCN2C(=O)[C@H](CC(=O)O)NC(=O)[C@H](CCCNC(=N)N)NC(=O)[C@H](Cc2ccc(O)cc2)NC(=O)[C@@H](NC(=O)CCC(=O)O)CSSC[C@@H](C(N)=O)NC1=O` [CP11], for which the IC50 in assay [4] is 8.52 ± 0.39 µM; in assay [1], 7.78 ± 2.63 µM; in assay [2], 4.99 ± 0.6 µM; in assay [3], 4.1 ± 0.76 µM.

Consider `CSCC[C@@H]1NC(=O)CNC(=O)CNC(=O)[C@H](C)NC(=O)[C@H](C(C)C)NC(=O)CNC(=O)[C@H](CC(C)C)NC(=O)[C@@H]2CCCN2C(=O)[C@H](CC(=O)O)NC(=O)[C@H](CCC(=O)O)NC(=O)[C@H](Cc2ccc(O)cc2)NC(=O)[C@H](CC(C)C)NC(=O)[C@H]2CCCN2C(=O)[C@@H]2CCCN2C(=O)CNC1=O` [CP3], for which the IC50 was determined as 2.78 ± 0.26 µM in assay [4], 27.1 ± 2.79 µM in assay [1], 2.01 ± 0.54 µM in assay [2] and 1.71 ± 0.19 µM in assay [3].
